From the NIST ThermoML archive (doi:10.1021/acs.jced.6b00158)
Numbers after ± are expanded uncertainties.

Key:
[1] = 100 kPa, Liquid; for viscosity: Falling or rolling sphere viscometry; for mass density: Vibrating tube method
[2] = xn = mol fraction of the nth substance listed; conditions: 100 kPa, Liquid, x1 = 1; for viscosity: Falling or rolling sphere viscometry; for mass density: Vibrating tube method

| SMILES | viscosity ([1]; 293.15 K) [mPa·s] | mass density ([1]; 293.15 K) [kg/m3] | viscosity ([1]; 298.15 K) [mPa·s] | mass density ([1]; 298.15 K) [kg/m3] | viscosity ([1]; 303.15 K) [mPa·s] | mass density ([1]; 303.15 K) [kg/m3] | viscosity ([1]; 308.15 K) [mPa·s] | mass density ([1]; 308.15 K) [kg/m3] | viscosity ([1]; 313.15 K) [mPa·s] | mass density ([1]; 313.15 K) [kg/m3] | viscosity ([2]; 293.15 K) [mPa·s] | mass density ([2]; 293.15 K) [kg/m3] | viscosity ([2]; 298.15 K) [mPa·s] | mass density ([2]; 298.15 K) [kg/m3] | viscosity ([2]; 303.15 K) [mPa·s] | mass density ([2]; 303.15 K) [kg/m3] | viscosity ([2]; 308.15 K) [mPa·s] | mass density ([2]; 308.15 K) [kg/m3] | viscosity ([2]; 313.15 K) [mPa·s] | mass density ([2]; 313.15 K) [kg/m3] |
| --- | --- | --- | --- | --- | --- | --- | --- | --- | --- | --- | --- | --- | --- | --- | --- | --- | --- | --- | --- | --- |
| CC(C)CO [2-methyl-1-propanol] | 4.023 ± 0.069 | 801.96 ± 2 | 3.404 ± 0.067 | 798.12 ± 2 | 2.882 ± 0.065 | 794.22 ± 2 | 2.475 ± 0.064 | 790.27 ± 2 | 2.097 ± 0.063 | 786.27 ± 2 |  |  |  |  |  |  |  |  |  |  |
| CC(C)CO [2-methyl-1-propanol] + NC1CCCCC1 |  |  |  |  |  |  |  |  |  |  | 4.023 ± 0.069 | 801.96 ± 2 | 3.404 ± 0.067 | 798.12 ± 2 | 2.882 ± 0.065 | 794.22 ± 2 | 2.475 ± 0.064 | 790.27 ± 2 | 2.097 ± 0.063 | 786.27 ± 2 |
| NC1CCCCC1 [cyclohexylamine] | 2.134 ± 0.063 | 866.85 ± 2 | 1.944 ± 0.062 | 862.31 ± 2 | 1.786 ± 0.062 | 857.79 ± 2 | 1.572 ± 0.062 | 853.24 ± 2 | 1.417 ± 0.061 | 848.71 ± 2 |  |  |  |  |  |  |  |  |  |  |
